{"source": "paper PMC6930223", "about": "(Scientific Reports, 2019)", "key": {"CYP1A2": {"test_system": "CYP1A2", "design": "method as in PMID 24174816, PMID 23274770", "settings": "cited from earlier work"}, "HEK293-hERG1a/1b cells": {"test_system": "HEK293-hERG1a/1b cells", "test": "Cell proliferation assay (CellTiter 96 AQueous One), 72 h", "format": "cell-based, human", "method": "Trypan blue exclusion test was carried out to determine the effect of transfection on HEK293-hERG1a/1b cell viability. Briefly, cell suspension was mixed with 0.4% (v/v) trypan blue solution in a ratio of 1:1 and the viability of the cells were analyzed using Countess® II FL automated cell counter (Invitrogen, USA). For cell proliferation assay, cells were first seeded at a density of 5000 cells/well onto two 96-well plates (T0 and T1) and were incubated at 37 °C for 24 h in a humidified incubator supplemented with 5% (v/v) CO2. Subsequently, cells in T0 plate were subjected to cell proliferation assay as described previously. Meanwhile, cells in T1 plate were cultured in reduced serum medium (0.5% v/v FBS) for 4 h and treated with various concentrations of mitragynine. After 72 h, cell proliferation was determined using CellTiter 96® AQueous One Solution Cell Proliferation Assay (Promega, USA) following manufacturer’s protocol. Cell proliferation results were expressed as percentage growth (PG)[65]. The response parameters GI50 (half maximal growth inhibitory concentration), TGI (total growth inhibition) and LC50 (half maximal lethal concentration) values were derived from a non-linear regression model (curvefit) based on dose response-inhibition curve and computed using GraphPad Prism® 5.01 (GraphPad Software, USA). The GI50, TGI and LC50 are interpolated values representing the concentrations at which the PG is +50, 0 and −50 respectively. Data are presented as mean PG for three independent experiments."}, "[1]": {"test_system": "hERG1b protein (fg 95 kDa, cg 80 kDa)", "test": "Western blot protein expression in HEK293-hERG1a/1b cells", "format": "cell-based, human", "settings": "all concentrations, 24 h", "method": "(§1) Total protein was isolated using RIPA lysis buffer system (Santa Cruz Biotechnology, Inc., USA). Equal amounts of protein samples were loaded onto 7.5% (v/v) polyacrylamide gels and were subsequently transferred to Immobilon®-P PVDF membrane (Millipore, USA) using Trans-Blot® Turbo™ Blotting System (Bio-Rad Laboratories, USA). Blots were blocked with 3% (w/v) skim milk for 1 h and probed with optimized primary antibodies against hERG1a (1:5000), hERG1b (1:1250), Hsp70 (1:10, 000), Hsp90 (1:5000) and β-actin (1:5000) overnight at 4 °C. Finally, the blots were then incubated in horseradish peroxidase (HRP) conjugated secondary antibody (1:1000) for 2.5 h followed by Clarity™ Western ECL substrate (Bio-Rad Laboratories, USA). The antibodies used for Western blotting were rabbit hERG1a polyclonal antibody (Enzo Life Sciences, USA), rabbit hERG1b polyclonal antibody (Enzo Life Sciences, USA), rabbit Hsc70/Hsp70 polyclonal antibody (Enzo Life Sciences, USA), rabbit Hsp90 polyclonal antibody (Enzo Life Sciences, USA), rabbit β-actin antibody (Cell Signaling, USA) and anti-rabbit IgG HRP-linked antibody (Cell Signaling, USA). Chemiluminescence signal was detected using ChemiDoc™ XRS Imaging System (Bio-Rad Laboratories, USA). Band densities were scanned and quantified using Image Lab Software (Bio-Rad Laboratories, USA). The signal for each protein band was normalized to the reference protein, β-actin. Experiments were conducted in duplicate and represented as mean fold changes of three independent experiments."}, "[2]": {"test_system": "hERG1a protein (fg 155 kDa, cg 135 kDa)", "test": "Western blot protein expression in HEK293-hERG1a/1b cells", "format": "cell-based, human", "settings": "24 h", "method": "as §1"}, "Hsp70": {"test_system": "Hsp70", "test": "Western blot of endogenous chaperone expression in HEK-hERG1a/1b cells", "format": "cell-based, human", "settings": "exposure for 24 h", "method": "as §1, with “The signal for each protein band was normalized to the reference protein, β-actin. Experiments were conducted in duplicate and represented as mean fold changes of three independent experiments.” left out"}, "Hsp90": {"test_system": "Hsp90", "test": "Western blot of endogenous chaperone expression in HEK-hERG1a/1b cells", "format": "cell-based, human", "settings": "exposure for 24 h", "method": "as §1, with “The signal for each protein band was normalized to the reference protein, β-actin. Experiments were conducted in duplicate and represented as mean fold changes of three independent experiments.” left out"}, "CYP2D6": {"test_system": "CYP2D6", "settings": "cited from earlier work"}, "hERG1a": {"test_system": "hERG1a", "design": "method as in PMID 27260674", "settings": "read-out: IC50 in hERG1a-transfected HEK293 cells; cited from earlier work"}, "hERG1a/1b current": {"target": "hERG1a/1b current (Homo sapiens, UniProt Q12809)", "method": "All working solutions were sterile-filtered, stored at −20 °C and thawed to room temperature before use.\nPrior to electrophysiology study, the HEK293-hERG1a/1b cells were first grown in complete medium without selection antibiotics for 6 days. Approximately 5.0 × 10^5 cells were then plated onto an uncoated 96-mm cell culture dish for a maximum of 3 days. […] The cell suspension was then transferred into a 15-ml polypropylene tube and centrifuged at 100 × g for 3 min. Subsequently, the cell pellet was resuspended in extracellular solution to obtain a final density of 2 × 10^6–3 × 10^6 cells/ml and incubated on ice for 20 min to allow cell recovery. The electrophysiology studies were performed using NPC®-1 chips (Nanion Technologies, Germany) and Port-a-Patch system (Nanion Technologies, Germany) following manufacturer’s instructions, within the next 2 h. For characterization and determination of the hERG1a/1b current inhibition, a series of voltage protocols were applied as published previously.\nThe hERG1a/1b current was recorded in cells achieving whole-cell configuration. Briefly, a single cell was first held at −80 mV, the theoretical cardiac resting membrane potential, on the aperture of the NPC-1 chip (Nanion Technologies, Germany). To characterize the I-V relationship, the cell was depolarized to test potentials ranging from −60 mV to +50 mV for 4 s in […], followed by a 5-s step to −50 mV before returning to −80mV.\nTo determine the pharmacological effects of the HEK293-hERG1a/1b cells, the cells were perfused with test compound solutions using an external perfusion system. […] The mean of six successive Itail was recorded for each test concentration. Four independent experiments were conducted to derive the dose-response curve."}, "[3]": {"test_system": "GIRK (G protein-coupled inward rectifier potassium) channels", "design": "method as in PMID 27260674", "settings": "heterologous expression systems; cited from earlier work"}}}
{"substance": "mitragynine", "values": [{"measurement": "effect on CYP1A2 (induction)", "setting": "CYP1A2", "value": "inductive effect"}, {"measurement": "GI50", "setting": "HEK293-hERG1a/1b cells", "value": 30.2, "unit": "µM"}, {"measurement": "LC50", "setting": "HEK293-hERG1a/1b cells", "value": 85.1, "unit": "µM"}, {"measurement": "TGI", "setting": "HEK293-hERG1a/1b cells", "value": 57.68, "unit": "µM"}, {"measurement": "cg-hERG1b protein expression", "setting": "[1]", "value": "no significant changes"}, {"measurement": "fg-hERG1b protein expression", "setting": "[1]", "value": "no significant changes"}, {"measurement": "increase of cg-hERG1a expression", "setting": "[2]; 10 µM, vs untreated control", "value": "~50", "unit": "%"}, {"measurement": "reduction of fg-hERG1a expression", "setting": "[2]; 10 µM, vs untreated control", "value": "approximately 22.3%"}, {"measurement": "expression of cg-hERG1a", "setting": "[2]; 0.001–1 µM", "value": "unaffected"}, {"measurement": "protein expression of fg-hERG1a", "setting": "[2]; 0.001–1 µM", "value": "no clear pattern"}, {"measurement": "Hsp70 levels", "setting": "Hsp70", "value": "neither Hsp70 nor Hsp90 levels were significantly altered"}, {"measurement": "Hsp90 levels", "setting": "Hsp90", "value": "neither Hsp70 nor Hsp90 levels were significantly altered"}, {"measurement": "effect on CYP2D6", "setting": "CYP2D6", "value": "potent inhibitory activity"}, {"measurement": "IC50", "setting": "hERG1a", "value": 1.62, "unit": "µM"}, {"measurement": "Hill coefficient (h)", "setting": "hERG1a/1b current; dose-response fit of hERG1a/1b tail current inhibition", "value": 0.61}, {"measurement": "IC50", "setting": "hERG1a/1b current; read-out: IC50 of hERG1a/1b current inhibition, peak tail current, step pulse protocol, HEK293-hERG1a/1b cells, four independent experiments", "value": 0.333, "unit": "µM"}, {"measurement": "effect on GIRK channels", "setting": "[3]", "value": "inhibit"}]}
